Data from article PMC10820816, “Drug Synergism of Anticancer Action in Combination with Favipiravir and Paclitaxel on Neuroblastoma Cells” (Medicina, 2023).
Converted amounts (≈) assume the structure as drawn.

Tests used:
[1] = test system: HDFa healthy cell cultures; experiment: Hoechst 33258 fluorescent staining and nuclear abnormality analysis; type: cell-based, human; set-up: MN (micronuclei) / Ntc (notched nuclei): unit not given here; details: for Abnormality Numbers/1000 Cells / L (lobed nuclei) / MN (micronuclei) / Ntc (notched nuclei): 24 h; for nuclear anomaly change compared to negative control: Hoechst 33258 staining
Method: (§1) The human dermal fibroblast cell (HDFa, ATCC® PCS-201-012™) culture was grown in the DMEM medium supplemented with 1% penicillin/streptomycin, 10% FBS and 5% CO2 at a 37 °C temperature until the cultures reached 80% confluency. The human neuroblastoma cell (SH-SY5Y, ATCC® CRL-2266™) line was cultured in DMEM/F12 culture media containing 1% penicillin/streptomycin and 10% fetal bovine serum at 37 °C and 5% CO2. Neuroblastoma cell cultures were incubated to grow up to 80% cell density.
The Hoechst 33258 nuclear staining method was used to monitor abnormalities in the nuclear structures of a healthy HDFa cell culture. Tested drugs were applied to the HDFa cell cultures at various concentrations, and the cell cultures were incubated at 37 °C for 24 h. Then, HDFa cells were fixed by using 4% paraformaldehyde at 4 °C for 30 min. After the incubation period, the cell cultures were washed with PBS two times. A total of 1 µM Hoechst 33258 fluorescent dye was added to the samples and incubated at room temperature for 5 min. Nuclear morphologies were monitored and photographed under a fluorescent microscope (Leica® DM IL LED, Wetzlar, Germany).

[2] = test system: SHSY-5Y neuroblastoma cells; experiment: Flow cytometry analysis (FITC Annexin V / PI); type: cell-based, human; details: FPV alone 39.06, 19.53, 9.76 µg/mL
Method: as §1
(§2) Flow cytometry analysis was performed by using the FITC Annexin V/Dead Cell Apoptosis Kit with FITC Annexin V and PI according to the producer’s recommendations. Further, 5 × 10^4 cells were collected by trypsinization and centrifugation. The cells were resuspended in 500 μL of 1× binding buffer and 5 μL of propidium iodide, and the Annexin V-FITC (50 μg/mL) dyes were added to the cultures and incubated in the dark for 5 min. Finally, the cultures were analyzed via the use of flow cytometry (The CyFlow® Cube 6, Norderstedt, Germany).

CYP2C8 = test system: CYP2C8; set-up: method as in PMID 34339547; details: cited from earlier work
[3] = test system: human fibroblast (HDFa) cells; experiment: MTT cell viability assay on human fibroblast (HDFa) cells; type: cell-based; details: 24 h, p < 0.05
Method: as §1
(§3) Cell viability analyses were performed on HDFa and SH-SY5Y by using the 3-(4,5-dimethylthiazol-2-yl)-2,5-diphenyltetrazolium bromide (MTT) technique. Briefly, the compounds were applied to cell cultures at defined concentration intervals (1.65 µg/mL to 100 µg/mL) for 24 h. At the end of the incubation period, 10 µL of the MTT solution ([…]) was added to each culture well, and the samples were incubated at 37 °C for 3 h. Then, the culture mediums were discarded, and 100 µL of DMSO was added to the samples to dissolve formazan crystal to obtain a purple/blue color. A microplate reader was used to measure the color intensities at a 570 nm wavelength.

[4] = MTT cell viability assay on SH-SY5Y neuroblastoma cells; type: cell-based, human; details: human, SH-SY5Y neuroblastoma cells, SHSY-5Y, PTX 10 µg/mL alone
Method: as §1, §3

[5] = test system: SHSY-5Y neuroblastoma cells; experiment: as above; type: cell-based, human; details: 24 h, p < 0.05
Method: as §1, §3

[6] = Flow cytometry analysis (FITC Annexin V / PI); type: cell-based, human; details: human, SH-SY5Y neuroblastoma cells, SHSY-5Y, PTX 10 µg/mL
Method: as §1, §2

NC(=O)c1nc(F)c[nH]c1=O [FPV, Favipiravir]
Abnormality Numbers/1000 Cells ([1]; FPV 9.7 µg/mL): 0.020 ± 0.008 a
L (lobed nuclei) ([1]; FPV 9.7 µg/mL): 7
MN (micronuclei) ([1]; FPV 9.7 µg/mL): 8
Ntc (notched nuclei) ([1]; FPV 9.7 µg/mL): 5
Abnormality Numbers/1000 Cells ([1]; FPV 19.5 µg/mL): 0.019 ± 0.016 a
L (lobed nuclei) ([1]; FPV 19.5 µg/mL): 6
MN (micronuclei) ([1]; FPV 19.5 µg/mL): 6
Ntc (notched nuclei) ([1]; FPV 19.5 µg/mL): 7
Abnormality Numbers/1000 Cells ([1]; FPV 39 µg/mL): 0.019 ± 0.007 a
L (lobed nuclei) ([1]; FPV 39 µg/mL): 7
MN (micronuclei) ([1]; FPV 39 µg/mL): 7
Ntc (notched nuclei) ([1]; FPV 39 µg/mL): 5
nuclear anomaly change compared to negative control [1]: no significant numerical anomaly change
change in cell viability [2]: did not cause a significant change in cell viability
IC50, concentration-dependent inhibitory effect on CYP2C8 (CYP2C8): 74.9 µg/mL (≈ 477 µM)

CC(=O)O[C@H]1C(=O)[C@@]2(C)[C@H]([C@H](OC(=O)c3ccccc3)[C@]3(O)C[C@H](OC(=O)[C@H](O)[C@@H](NC(=O)c4ccccc4)c4ccccc4)C(C)=C1C3(C)C)[C@]1(OC(C)=O)CO[C@@H]1C[C@@H]2O [PTX, Paclitaxel]
concentrations causing a significant cytotoxic / viability-reducing effect [3]: 10000 ng/mL
viability at 24 h, 10 µg/mL [4]: 37%
concentrations causing a significant decrease in cell viability (cytotoxic effect) [5]: ≥ 312.5 ng/mL
nuclear anomaly change compared to negative control [1]: no significant numerical anomaly change
Abnormality Numbers/1000 Cells ([1]; PTX 10 µg/mL): 0.019 ± 0.013 a
L (lobed nuclei) ([1]; PTX 10 µg/mL): 5
MN (micronuclei) ([1]; PTX 10 µg/mL): 8
Ntc (notched nuclei) ([1]; PTX 10 µg/mL): 6
viability at 10 µg/mL [6]: ~37%
